# Test results: PMC2697958 (Molecular microbiology, 2009)
# pIC50: −log10 of the molar value.
# Biological target: Aurora kinase-1 (TbAUK1) (Trypanosoma brucei, UniProt Q384J7)
# Test: in vitro kinase assay of immunoprecipitated kinase
# Format: biochemical
smiles,measurement,value
CCS(=O)(=O)Nc1ccc2c(c1)/C(=C(/Nc1ccc(CN3CCCCC3)cc1)c1ccccc1)C(=O)N2 [Hesperadin],pIC50,7.40
